Data published in US10287269B2, “Pyrazolyl pyrimidinone compounds as PDE2 inhibitors” (Merck Sharp & Dohme Corp., priority 2015, dated 2019).
Where two headings read alike, the source gives them in different places.

Molecular target: T1, Rhesus PDE2A3 (Macaca mulatta, UniProt B3VTJ2)
T1 construct: made in house; host or cells: AD293 cells, transient transfection, pcDNA3.3-TOPO; lysate supernatant used as enzyme
T1 sequence (B3VTJ2 1-941): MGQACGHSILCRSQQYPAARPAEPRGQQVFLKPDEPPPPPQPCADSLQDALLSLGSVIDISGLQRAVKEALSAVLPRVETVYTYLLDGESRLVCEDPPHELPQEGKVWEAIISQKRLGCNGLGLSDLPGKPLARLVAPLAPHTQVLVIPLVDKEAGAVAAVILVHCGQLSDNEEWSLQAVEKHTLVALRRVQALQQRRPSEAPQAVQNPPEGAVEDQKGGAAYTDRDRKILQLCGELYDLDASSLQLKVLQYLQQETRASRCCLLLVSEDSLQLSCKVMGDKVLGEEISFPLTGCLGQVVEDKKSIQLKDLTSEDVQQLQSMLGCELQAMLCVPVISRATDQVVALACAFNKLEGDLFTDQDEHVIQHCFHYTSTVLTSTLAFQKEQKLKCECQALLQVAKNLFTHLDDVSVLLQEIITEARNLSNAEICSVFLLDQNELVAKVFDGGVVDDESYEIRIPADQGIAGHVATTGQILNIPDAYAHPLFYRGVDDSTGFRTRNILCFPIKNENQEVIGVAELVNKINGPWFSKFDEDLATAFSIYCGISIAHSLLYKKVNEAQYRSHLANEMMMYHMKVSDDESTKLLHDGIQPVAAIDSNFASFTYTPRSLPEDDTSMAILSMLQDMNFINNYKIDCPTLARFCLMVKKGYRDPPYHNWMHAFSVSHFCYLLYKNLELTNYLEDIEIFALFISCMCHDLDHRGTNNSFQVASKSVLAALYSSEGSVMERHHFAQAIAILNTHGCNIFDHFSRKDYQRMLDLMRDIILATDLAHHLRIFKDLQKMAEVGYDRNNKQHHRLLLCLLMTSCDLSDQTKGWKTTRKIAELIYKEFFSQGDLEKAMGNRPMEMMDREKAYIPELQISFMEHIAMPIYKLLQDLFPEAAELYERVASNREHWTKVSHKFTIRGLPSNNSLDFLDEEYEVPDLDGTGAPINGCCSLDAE
Assay: PDE2 fluorescence polarization (IMAP FP) inhibition assay, rhesus enzyme
Type: biochemical, rhesus macaque
Description: The activity of the compounds in accordance with the present invention as PDE2 inhibitors may be readily determined using a fluorescence polarization (FP) methodology (Huang, W., et al., J. Biomol Screen, 2002, 7: 215).
In a typical experiment the PDE2 inhibitory activity of the compounds of the present invention was determined in accordance with the following experimental method. Rhesus PDE2A3 was amplified from rhesus macaque brain cDNA (Biochain Institute, Hayward, Calif.) using primers based on human PDE2A sequence (accession NM_002599.3) where the forward primer containing a Kozak consensus was 5′-[…]-3′ and the reverse primer was 5′-[…]-3′. Amplification with Easy-A High-Fidelity PCR cloning enzyme (Stratagene, La Jolla, Calif.) was 95° C. for 2 minutes followed by thirty three cycles of 95° C. for 40 seconds, 52° C. for 30 seconds, and 72° C. for 2 minutes 48 seconds. Final extension was 72° C. for 7 minutes. The PCR product was TA cloned into pcDNA3.3-TOPO (Invitrogen, Carlsbad, Calif.) according to standard protocol. A consensus sequence was developed from multiple clones and then deposited into GenBank (EU812167). AD293 cells (Stratagene, La Jolla, Calif.) with 70-80% confluency were transiently transfected with rhesus PDE2A3/pcDNA3.3-TOPO using Lipofectamine 2000 according to manufacturer specifications (Invitrogen, Carlsbad, Calif.). Cells were harvested 48 hours post-transfection and lysed by sonication (setting 3, 10×5 sec pulses) in a buffer containing 20 mM HEPES pH 7.4, 1 mM EDTA and Complete Protease Inhibitor Cocktail Tablets (Roche, Indianapolis, Ind.). Lysate was collected by centrifugation at 75,000×g for 20 minutes at 4° C. and supernatant utilized for evaluation of PDE2 activity. The fluorescence polarization assay for cyclic nucleotide phosphodiesterases was performed using an IMAP® FP kit supplied by Molecular Devices, Sunnyvale, Calif. (product # R8139). […] Assays were performed at room temperature in 384-well microtiter plates with an incubation volume of 20.2 μL. Solutions of test compounds were prepared in DMSO and serially diluted with DMSO to yield 8 μL of each of 10 solutions differing by 3-fold in concentration, at 32 serial dilutions per plate. […] 0% of inhibition is determined by using DMSO (1% final concentrations).
A Labcyte Echo 555 (Labcyte, Sunnyvale, Calif.) is used to dispense 200 nL from each well of the titration plate to the 384 well assay plate. Ten microliters of a solution of enzyme (1/2000 final dilution from aliquots; sufficient to produce 20% substrate conversion) was added to the assay plate. Next 10 uL of a separate solution of the substrate FAM-labeled cAMP (50 nM final concentration product # R7506 from Molecular Devices) and the activator cGMP (1 uM final concentration), prepared in the assay buffer (10 mM Tris HCl, pH 7.2, 10 mM MgCl2, 0.05% NaN3 0.01% Tween-20, and 1 mM DTT) was added to the assay plate and shaken to mix. The reaction is allowed to proceed at room temperature for 60 minutes. A binding solution is then made from the kit components, comprised of 80% Solution A, 20% Solution B and binding reagent at a volume of 1/600 the total binding solution. The enzymatic reaction is stopped by addition of 60 μl, of the binding solution to each well of the assay plates and the plates are sealed and shaken for 30 seconds. The plate was incubated at room temperature for at least one hour prior to determining the fluorescence polarization (FP). The parallel and perpendicular fluorescence of each well of the plate was measured using a Tecan Genios Pro plate reader (Tecan, Switzerland) or Perkin Elmer EnVision™ plate reader (Waltham, Mass.). Fluorescence polarization (mP) was calculated from the parallel (S) and perpendicular (P) fluorescence of each sample well and the analogous values for the median control well, containing only substrate (So and Po), using the following equation: Polarization (mP)=1000*(S/So−P/Po)/(S/So+P/Po).

[1] = Lab B, read-out: Rhesus PDE2 Ki (nM) Lab B
[2] = Lab A, read-out: Rhesus PDE2 Ki (nM) Lab A

SMILES | Ki [1] | Ki [2]
Cc1nc(-n2cc(C(C)c3ccncc3)cn2)cc(=O)[nH]1 (stereo not shown) [Example 54, 2-methyl-6-[4-(1-pyridin-4-ylethyl)-1H-pyrazol-1-yl]pyrimidin-4(3H)-one] | 18200 nM | 
Cc1nc(-n2cc(C(C)c3ccc4c(c3)OCC4(C)C)cn2)cc(=O)[nH]1 (stereo not shown) [Example 47, 6-(4-(1-(3,3-dimethyl-2,3-dihydrobenzofuran-6-yl)ethyl)-1H-pyrazol-1-yl)-2-methylpyrimidin-4(3H)-one] | 1240 nM | 
Cc1nc(-c2cnn(C(C)c3ccc(C(F)(F)F)cc3C(F)(F)F)c2)cc(=O)[nH]1 (single isomer, unassigned) [Example 144, (R)- or (S)-6-(1-(1-(2,4-bis(trifluoromethyl)phenyl)ethyl)-1H-pyrazol-4-yl)-2-methylpyrimidin-4(3H)-one] |  | 397 nM
Cc1nc(-c2cc([C@@H](C)c3ccc(C(F)(F)F)cc3)n(C)n2)cc(=O)[nH]1 (single isomer, unassigned) [Example 25] | 3680 nM | 
Cc1ccc(C(C)n2ccc(-c3cc(=O)[nH]c(C)n3)n2)cc1 (stereo not shown) [Example 157, 2-methyl-6-(1-(1-(p-tolyl)ethyl)-1H-pyrazol-3-yl)pyrimidin-4(3H)-one] | 48700 nM | 
Cc1nc(-c2cnn(C(C)c3ccc(OC(F)F)cc3F)c2)cc(=O)[nH]1 (single isomer, unassigned) [Example 88, (S)- or (R)-6-(1-(1-(4-(difluoromethoxy)-2-fluorophenyl)ethyl)-1H-pyrazol-4-yl)-2-methylpyrimidin-4(3H)-one] |  | 162 nM
COCc1ccc(C(C)n2cc(-c3cc(=O)[nH]c(C)n3)cn2)c(Cl)c1 (single isomer, unassigned) [Example 104, (S)- or (R)-6-(1-(1-(2-chloro-4-(methoxymethyl)phenyl)ethyl)-1H-pyrazol-4-yl)-2-methylpyrimidin-4(3H)-one] |  | > 2970 nM
Cc1nc(-n2cc(C(C)c3ccc4c(c3)COCC4)cn2)cc(=O)[nH]1 (stereo not shown) [Example 46, 6-(4-(1-(isochroman-7-yl)ethyl)-1H-pyrazol-1-yl)-2-methylpyrimidin-4(3H)-one] | 2480 nM | 
Cc1nc(-c2ccn(C(C)c3ccc(OC(F)(F)F)cc3)n2)cc(=O)[nH]1 (stereo not shown) [Example 75, 2-methyl-6-(1-(1-(4-(trifluoromethoxy)phenyl)ethyl)-1H-pyrazol-3-yl)pyrimidin-4(3H)-one] | 3250 nM | 
Cc1nc(-c2cnn(C(C)c3ccc(OC(F)F)cc3C)c2)cc(=O)[nH]1 (single isomer, unassigned) [Example 89, (R)- or (S)-6-(1-(1-(4-(difluoromethoxy)-2-methylphenyl)ethyl)-1H-pyrazol-4-yl)-2-methylpyrimidin-4(3H)-one] |  | 1840 nM
Cc1nc(-c2ccn(C(C)c3ccc(F)cc3)n2)cc(=O)[nH]1 (stereo not shown) [Example 161, 6-(1-(1-(4-fluorophenyl)ethyl)-1H-pyrazol-3-yl)-2-methylpyrimidin-4(3H)-one] | 13900 nM | 
Cc1nc(-c2ccn(C(C)c3cccc(C(F)(F)F)c3)n2)cc(=O)[nH]1 (stereo not shown) [Example 159, 2-methyl-6-(1-(1-(3-(trifluoromethyl)phenyl)ethyl)-1H-pyrazol-3-yl)pyrimidin-4(3H)-one] | 25700 nM | 
Cc1nc(-n2cc(C(C)c3ccc(OC(F)(F)F)cc3C)cn2)cc(=O)[nH]1 (stereo not shown) [Example 55, 2-methyl-6-(4-(1-(2-methyl-4-(trifluoromethoxy)phenyl)ethyl)-1H-pyrazol-1-yl)pyrimidin-4(3H)-one] | 467 nM | 
Cc1nc(-c2cnn(C(C)c3cccc(C(F)(F)F)c3)c2)cc(=O)[nH]1 (stereo not shown) [Example 73, 2-methyl-6-(1-(1-(3-(trifluoromethyl)phenyl)ethyl)-1H-pyrazol-4-yl)pyrimidin-4(3H)-one] | 6380 nM | 
COCc1ccc(C(C)n2cc(-c3cc(=O)[nH]c(C)n3)cn2)c(F)c1 (single isomer, unassigned) [Example 98, (S)- or (R)-6-(1-(1-(2-fluoro-4-(methoxymethyl)phenyl)ethyl)-1H-pyrazol-4-yl)-2-methylpyrimidin-4(3H)-one] |  | > 2970 nM
Cc1nc(-c2cc([C@@H](C)c3ccc(C(F)(F)F)cc3)n(C)n2)cc(=O)[nH]1 (single isomer, unassigned) [Example 26] | 1140 nM | 
